Measured values published in the kinase profiling compilation of Christmann-Franck et al. (2016).

Experiments:
Test in all cases: radiometric filter-binding kinase assay
[1] = biological target: MAPK14 (human) (UniProt Q16539)
[2] = biological target: CLK2 (human) (UniProt P49760)
[3] = biological target: CAMKK2 (human) (UniProt Q96RR4)
[4] = biological target: HIPK3 (human) (UniProt Q9H422)
[5] = biological target: FLT1 (human) (UniProt P17948)
[6] = biological target: PRKCZ (human) (UniProt Q05513)
[7] = test system: AKT2 (human), P31751 [S474D]
[8] = biological target: MARK1 (human) (UniProt Q9P0L2)
MARK1 (human), sequence (Q9P0L2 whole entry, looked up): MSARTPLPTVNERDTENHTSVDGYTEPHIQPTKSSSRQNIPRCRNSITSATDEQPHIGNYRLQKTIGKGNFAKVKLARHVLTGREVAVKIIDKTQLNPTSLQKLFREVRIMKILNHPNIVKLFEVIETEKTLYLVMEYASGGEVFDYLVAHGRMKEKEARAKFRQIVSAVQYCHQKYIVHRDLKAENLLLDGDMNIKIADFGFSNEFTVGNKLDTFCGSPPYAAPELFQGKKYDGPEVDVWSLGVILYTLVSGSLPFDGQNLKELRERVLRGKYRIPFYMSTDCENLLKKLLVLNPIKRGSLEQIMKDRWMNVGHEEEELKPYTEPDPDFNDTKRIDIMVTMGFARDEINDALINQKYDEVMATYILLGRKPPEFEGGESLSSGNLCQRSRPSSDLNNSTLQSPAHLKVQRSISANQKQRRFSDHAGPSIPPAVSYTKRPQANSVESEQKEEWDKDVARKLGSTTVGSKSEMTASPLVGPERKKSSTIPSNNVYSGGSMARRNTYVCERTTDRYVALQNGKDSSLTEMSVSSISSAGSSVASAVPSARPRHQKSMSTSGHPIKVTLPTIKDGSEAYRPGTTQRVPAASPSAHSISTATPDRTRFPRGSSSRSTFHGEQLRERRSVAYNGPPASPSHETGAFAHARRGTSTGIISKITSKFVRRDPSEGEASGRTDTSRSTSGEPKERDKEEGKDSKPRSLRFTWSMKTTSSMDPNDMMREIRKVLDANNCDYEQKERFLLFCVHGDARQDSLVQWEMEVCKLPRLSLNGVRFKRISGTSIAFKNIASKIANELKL

[9] = biological target: DYRK3 (human) (UniProt O43781)
[10] = biological target: MAPK11 (human) (UniProt Q15759)
MAPK11 (human), sequence (Q15759 whole entry, looked up): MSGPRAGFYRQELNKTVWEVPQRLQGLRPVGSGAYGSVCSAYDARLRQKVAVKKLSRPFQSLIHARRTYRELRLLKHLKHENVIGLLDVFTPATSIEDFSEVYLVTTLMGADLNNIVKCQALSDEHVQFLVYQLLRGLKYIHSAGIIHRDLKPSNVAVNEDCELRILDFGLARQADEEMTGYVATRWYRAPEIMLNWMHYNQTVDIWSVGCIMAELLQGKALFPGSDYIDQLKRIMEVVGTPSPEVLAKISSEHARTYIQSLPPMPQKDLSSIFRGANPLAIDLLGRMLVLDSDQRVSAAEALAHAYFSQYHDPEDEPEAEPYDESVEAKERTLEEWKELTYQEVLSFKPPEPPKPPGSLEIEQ

[11] = biological target: BRSK1 (human) (UniProt Q8TDC3)
[12] = biological target: IGF1R (human) (UniProt P08069)
[13] = biological target: MAPK15 (human) (UniProt Q8TD08)
[14] = biological target: RIPK2 (human) (UniProt O43353)
RIPK2 (human), sequence (O43353 whole entry, looked up): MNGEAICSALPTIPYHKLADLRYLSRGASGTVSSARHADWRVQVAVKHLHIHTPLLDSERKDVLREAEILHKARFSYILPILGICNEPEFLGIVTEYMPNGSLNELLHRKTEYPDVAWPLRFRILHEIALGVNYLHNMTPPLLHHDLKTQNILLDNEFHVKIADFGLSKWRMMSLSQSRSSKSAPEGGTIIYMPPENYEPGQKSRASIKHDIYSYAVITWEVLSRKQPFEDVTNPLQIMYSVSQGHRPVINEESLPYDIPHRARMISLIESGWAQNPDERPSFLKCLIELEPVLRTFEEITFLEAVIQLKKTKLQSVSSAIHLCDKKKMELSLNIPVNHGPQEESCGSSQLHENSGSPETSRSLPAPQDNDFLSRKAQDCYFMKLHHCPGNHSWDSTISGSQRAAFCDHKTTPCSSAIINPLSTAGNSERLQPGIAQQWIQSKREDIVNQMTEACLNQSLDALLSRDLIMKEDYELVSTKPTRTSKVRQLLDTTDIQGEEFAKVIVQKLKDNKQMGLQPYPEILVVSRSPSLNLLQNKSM

[15] = biological target: FGFR1 (human) (UniProt P11362)
[16] = biological target: MELK (human) (UniProt Q14680)
MELK (human), sequence (Q14680 whole entry, looked up): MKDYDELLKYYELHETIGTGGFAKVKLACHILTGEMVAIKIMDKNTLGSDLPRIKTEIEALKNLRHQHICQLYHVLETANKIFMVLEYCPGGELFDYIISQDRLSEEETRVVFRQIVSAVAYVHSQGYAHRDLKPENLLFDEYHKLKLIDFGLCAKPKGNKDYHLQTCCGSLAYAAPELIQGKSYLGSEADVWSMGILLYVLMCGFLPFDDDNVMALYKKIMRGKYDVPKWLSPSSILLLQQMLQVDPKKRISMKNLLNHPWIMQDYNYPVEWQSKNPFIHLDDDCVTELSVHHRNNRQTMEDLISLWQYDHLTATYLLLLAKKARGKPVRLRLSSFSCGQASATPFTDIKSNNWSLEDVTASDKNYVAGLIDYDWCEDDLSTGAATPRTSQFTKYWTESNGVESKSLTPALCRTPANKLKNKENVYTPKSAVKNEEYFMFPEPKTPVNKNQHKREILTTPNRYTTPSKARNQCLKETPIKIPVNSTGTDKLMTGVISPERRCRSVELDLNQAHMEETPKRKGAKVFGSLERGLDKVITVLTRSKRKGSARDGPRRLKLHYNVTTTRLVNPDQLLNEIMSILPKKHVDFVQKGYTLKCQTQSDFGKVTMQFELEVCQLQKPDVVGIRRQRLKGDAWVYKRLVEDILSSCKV

[17] = biological target: INSR (human) (UniProt P06213)
[18] = biological target: CSK (human) (UniProt P41240)
CSK (human), sequence (P41240 whole entry, looked up): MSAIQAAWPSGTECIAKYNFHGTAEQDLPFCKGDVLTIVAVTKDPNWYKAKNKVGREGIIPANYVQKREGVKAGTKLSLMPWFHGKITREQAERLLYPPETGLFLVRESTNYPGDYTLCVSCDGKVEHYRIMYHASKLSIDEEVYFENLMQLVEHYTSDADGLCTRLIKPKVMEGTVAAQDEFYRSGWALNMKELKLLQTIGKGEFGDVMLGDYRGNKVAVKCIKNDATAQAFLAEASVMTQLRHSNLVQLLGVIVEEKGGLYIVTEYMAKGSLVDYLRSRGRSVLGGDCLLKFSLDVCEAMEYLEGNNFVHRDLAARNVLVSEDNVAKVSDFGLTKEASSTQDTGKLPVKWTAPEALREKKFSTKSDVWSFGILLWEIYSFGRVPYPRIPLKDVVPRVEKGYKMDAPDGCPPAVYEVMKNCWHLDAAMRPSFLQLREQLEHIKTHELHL

[19] = test system: ROCK2 (rat); details: accession and sequence are those of the human protein
[20] = biological target: EPHA2 (human) (UniProt P29317)
[21] = biological target: NTRK1 (human) (UniProt P04629)
[22] = biological target: MAP3K7 TAB1 (human) (UniProt Q15750+O43318)
[23] = biological target: JAK2 JH1 JH2 (human) (UniProt O60674)
[24] = biological target: GSK3B (human) (UniProt P49841)
[25] = biological target: STK11 CAB39 STRADA (human) (UniProt Q9Y376+Q7RTN6+Q15831)
STK11 CAB39 STRADA (human), sequence (Q15831 whole entry, looked up): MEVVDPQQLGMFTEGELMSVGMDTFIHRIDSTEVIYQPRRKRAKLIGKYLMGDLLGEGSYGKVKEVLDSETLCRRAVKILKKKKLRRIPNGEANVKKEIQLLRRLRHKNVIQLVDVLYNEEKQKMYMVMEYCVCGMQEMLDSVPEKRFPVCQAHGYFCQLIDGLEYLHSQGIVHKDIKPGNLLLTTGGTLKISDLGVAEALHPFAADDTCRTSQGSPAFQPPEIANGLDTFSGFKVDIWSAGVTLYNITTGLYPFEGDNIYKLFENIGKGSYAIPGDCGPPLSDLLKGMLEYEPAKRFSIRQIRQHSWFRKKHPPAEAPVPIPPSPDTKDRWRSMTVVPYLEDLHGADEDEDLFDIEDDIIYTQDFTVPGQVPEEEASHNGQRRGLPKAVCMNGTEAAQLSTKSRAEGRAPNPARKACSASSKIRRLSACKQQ
STK11 CAB39 STRADA (human), sequence (Q7RTN6 whole entry, looked up): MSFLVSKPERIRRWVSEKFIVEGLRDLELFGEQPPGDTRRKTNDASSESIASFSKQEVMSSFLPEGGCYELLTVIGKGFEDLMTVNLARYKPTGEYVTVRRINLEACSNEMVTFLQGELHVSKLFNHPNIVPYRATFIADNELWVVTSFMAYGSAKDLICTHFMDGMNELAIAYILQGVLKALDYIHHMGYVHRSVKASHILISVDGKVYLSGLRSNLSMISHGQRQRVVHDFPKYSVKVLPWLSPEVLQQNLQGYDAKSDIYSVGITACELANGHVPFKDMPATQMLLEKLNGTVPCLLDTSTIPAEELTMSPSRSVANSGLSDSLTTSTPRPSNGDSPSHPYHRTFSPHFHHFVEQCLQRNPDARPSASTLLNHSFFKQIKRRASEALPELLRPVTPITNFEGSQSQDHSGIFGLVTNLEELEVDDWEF
STK11 CAB39 STRADA (human), sequence (Q9Y376 whole entry, looked up): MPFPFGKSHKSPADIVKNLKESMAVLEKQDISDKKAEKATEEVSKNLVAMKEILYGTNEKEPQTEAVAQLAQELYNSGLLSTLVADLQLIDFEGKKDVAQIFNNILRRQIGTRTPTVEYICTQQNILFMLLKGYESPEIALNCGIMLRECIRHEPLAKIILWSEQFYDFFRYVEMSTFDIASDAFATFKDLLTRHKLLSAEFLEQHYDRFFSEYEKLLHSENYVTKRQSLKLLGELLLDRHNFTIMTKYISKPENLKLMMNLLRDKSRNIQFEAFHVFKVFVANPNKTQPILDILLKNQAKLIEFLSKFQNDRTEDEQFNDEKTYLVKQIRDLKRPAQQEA

[26] = biological target: IRAK4 (human) (UniProt Q9NWZ3)
[27] = biological target: CSNK1D (human) (UniProt P48730)
CSNK1D (human), sequence (P48730 whole entry, looked up): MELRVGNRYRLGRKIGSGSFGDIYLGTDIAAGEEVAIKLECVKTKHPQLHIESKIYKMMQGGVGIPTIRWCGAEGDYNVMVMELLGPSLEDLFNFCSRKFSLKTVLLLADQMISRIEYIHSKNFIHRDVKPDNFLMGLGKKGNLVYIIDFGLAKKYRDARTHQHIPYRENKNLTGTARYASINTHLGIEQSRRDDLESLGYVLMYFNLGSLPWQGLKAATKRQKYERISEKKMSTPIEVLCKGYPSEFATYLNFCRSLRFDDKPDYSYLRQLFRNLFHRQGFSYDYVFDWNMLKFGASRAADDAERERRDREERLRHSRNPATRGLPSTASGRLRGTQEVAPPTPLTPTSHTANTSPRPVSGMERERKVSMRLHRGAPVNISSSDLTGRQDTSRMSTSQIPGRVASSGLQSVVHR

[28] = biological target: MINK1 (human) (UniProt Q8N4C8)
[29] = biological target: MAP3K1 (human) (UniProt Q13233)
[30] = test system: LCK (mouse); details: accession and sequence are those of the human protein
[31] = biological target: SRC (human) (UniProt P12931)
SRC (human), sequence (P12931 whole entry, looked up): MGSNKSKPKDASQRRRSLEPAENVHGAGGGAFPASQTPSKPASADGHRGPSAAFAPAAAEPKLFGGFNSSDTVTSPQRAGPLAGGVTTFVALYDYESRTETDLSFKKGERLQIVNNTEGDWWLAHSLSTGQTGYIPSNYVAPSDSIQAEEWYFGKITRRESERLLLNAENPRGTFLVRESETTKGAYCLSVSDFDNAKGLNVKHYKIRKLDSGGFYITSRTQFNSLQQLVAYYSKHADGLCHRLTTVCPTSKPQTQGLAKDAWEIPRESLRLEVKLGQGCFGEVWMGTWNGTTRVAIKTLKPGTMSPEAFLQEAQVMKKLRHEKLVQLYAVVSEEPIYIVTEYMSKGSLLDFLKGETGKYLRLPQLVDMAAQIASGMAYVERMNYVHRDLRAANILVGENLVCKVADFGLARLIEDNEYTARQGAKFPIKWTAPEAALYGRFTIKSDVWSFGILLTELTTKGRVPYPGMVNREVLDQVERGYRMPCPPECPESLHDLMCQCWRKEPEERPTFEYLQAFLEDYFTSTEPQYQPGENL

[32] = biological target: MAPKAPK5 (human) (UniProt Q8IW41)
[33] = biological target: HIPK1 (human) (UniProt Q86Z02)
[34] = biological target: RPS6KA3 KD1 KD2 (human) (UniProt P51812)

CN1CCN(CCOc2cc(OC3CCOCC3)c3c(Nc4c(Cl)ccc5c4OCO5)ncnc3c2)CC1
residual activity ([1]; compound 0.1 µM): 108%
residual activity ([2]; compound 0.1 µM): 111%
residual activity ([3]; compound 0.1 µM): 95%
residual activity ([4]; compound 0.1 µM): 101%
residual activity ([5]; compound 0.1 µM): 116%
residual activity ([6]; compound 0.1 µM): 101%
residual activity ([7]; compound 0.1 µM): 86%
residual activity ([8]; compound 0.1 µM): 101%
residual activity ([9]; compound 0.1 µM): 114%
residual activity ([10]; compound 0.1 µM): 85%
residual activity ([11]; compound 0.1 µM): 94%
residual activity ([12]; compound 0.1 µM): 97%
residual activity ([13]; compound 0.1 µM): 134%
residual activity ([14]; compound 0.1 µM): 9%
residual activity ([15]; compound 0.1 µM): 110%
residual activity ([16]; compound 0.1 µM): 106%
residual activity ([17]; compound 0.1 µM): 90%
residual activity ([18]; compound 0.1 µM): 74%
residual activity ([19]; compound 0.1 µM): 111%
residual activity ([20]; compound 0.1 µM): 55%
residual activity ([21]; compound 0.1 µM): 93%
residual activity ([22]; compound 0.1 µM): 115%
residual activity ([23]; compound 0.1 µM): 102%
residual activity ([24]; compound 0.1 µM): 101%
residual activity ([25]; compound 0.1 µM): 112%
residual activity ([26]; compound 0.1 µM): 100%
residual activity ([27]; compound 0.1 µM): 115%
residual activity ([28]; compound 0.1 µM): 90%
residual activity ([29]; compound 0.1 µM): 84%

O=C(O)c1cc(N=Nc2ccc(S(=O)(=O)Nc3ccccn3)cc2)ccc1O
residual activity ([1]; compound 1.0 µM): 105%
residual activity ([1]; compound 10.0 µM): 101%
residual activity ([30]; compound 1.0 µM): 102%
residual activity ([30]; compound 10.0 µM): 97%
residual activity ([3]; compound 1.0 µM): 127%
residual activity ([3]; compound 10.0 µM): 122%
residual activity ([31]; compound 1.0 µM): 94%
residual activity ([31]; compound 10.0 µM): 83%
residual activity ([4]; compound 1.0 µM): 98%
residual activity ([4]; compound 10.0 µM): 103%
residual activity ([5]; compound 1.0 µM): 102%
residual activity ([5]; compound 10.0 µM): 105%
residual activity ([6]; compound 1.0 µM): 96%
residual activity ([6]; compound 10.0 µM): 103%
residual activity ([7]; compound 10.0 µM): 94%
residual activity ([9]; compound 1.0 µM): 89%
residual activity ([9]; compound 10.0 µM): 77%
residual activity ([10]; compound 1.0 µM): 113%
residual activity ([10]; compound 10.0 µM): 109%
residual activity ([11]; compound 1.0 µM): 97%
residual activity ([11]; compound 10.0 µM): 92%
residual activity ([12]; compound 1.0 µM): 111%
residual activity ([12]; compound 10.0 µM): 98%
residual activity ([13]; compound 1.0 µM): 111%
residual activity ([13]; compound 10.0 µM): 109%
residual activity ([32]; compound 1.0 µM): 92%
residual activity ([32]; compound 10.0 µM): 90%
residual activity ([14]; compound 1.0 µM): 115%
residual activity ([14]; compound 10.0 µM): 95%
residual activity ([15]; compound 1.0 µM): 110%
residual activity ([15]; compound 10.0 µM): 115%
residual activity ([16]; compound 1.0 µM): 113%
residual activity ([16]; compound 10.0 µM): 101%
residual activity ([17]; compound 1.0 µM): 101%
residual activity ([17]; compound 10.0 µM): 97%
residual activity ([18]; compound 1.0 µM): 119%
residual activity ([18]; compound 10.0 µM): 119%
residual activity ([19]; compound 1.0 µM): 93%
residual activity ([19]; compound 10.0 µM): 90%
residual activity ([20]; compound 1.0 µM): 119%
residual activity ([33]; compound 1.0 µM): 111%
residual activity ([33]; compound 10.0 µM): 105%
residual activity ([24]; compound 1.0 µM): 101%
residual activity ([24]; compound 10.0 µM): 93%
residual activity ([25]; compound 1.0 µM): 124%
residual activity ([25]; compound 10.0 µM): 117%
residual activity ([26]; compound 1.0 µM): 104%
residual activity ([26]; compound 10.0 µM): 97%
residual activity ([27]; compound 1.0 µM): 103%
residual activity ([27]; compound 10.0 µM): 95%
residual activity ([34]; compound 1.0 µM): 97%
residual activity ([34]; compound 10.0 µM): 91%
residual activity ([28]; compound 10.0 µM): 57%

CN1C(=O)[C@@H](Cc2c[nH]c3ccccc23)NC1=S
residual activity ([1]; compound 1.0 µM): 97%
residual activity ([1]; compound 10.0 µM): 102%
residual activity ([30]; compound 1.0 µM): 116%
residual activity ([30]; compound 10.0 µM): 111%
residual activity ([3]; compound 1.0 µM): 91%
residual activity ([3]; compound 10.0 µM): 86%
residual activity ([31]; compound 1.0 µM): 98%
residual activity ([31]; compound 10.0 µM): 110%
residual activity ([4]; compound 1.0 µM): 111%
residual activity ([4]; compound 10.0 µM): 102%
residual activity ([5]; compound 1.0 µM): 91%
residual activity ([5]; compound 10.0 µM): 88%
residual activity ([6]; compound 1.0 µM): 70%
residual activity ([6]; compound 10.0 µM): 83%
residual activity ([7]; compound 1.0 µM): 79%
residual activity ([7]; compound 10.0 µM): 68%
residual activity ([9]; compound 1.0 µM): 90%
residual activity ([9]; compound 10.0 µM): 82%
residual activity ([10]; compound 1.0 µM): 91%
residual activity ([10]; compound 10.0 µM): 88%
residual activity ([11]; compound 1.0 µM): 101%
residual activity ([11]; compound 10.0 µM): 103%
residual activity ([12]; compound 1.0 µM): 86%
residual activity ([12]; compound 10.0 µM): 120%
residual activity ([13]; compound 1.0 µM): 98%
residual activity ([13]; compound 10.0 µM): 103%
residual activity ([32]; compound 1.0 µM): 88%
residual activity ([32]; compound 10.0 µM): 87%
residual activity ([14]; compound 10.0 µM): 112%
residual activity ([15]; compound 1.0 µM): 93%
residual activity ([15]; compound 10.0 µM): 100%
residual activity ([16]; compound 1.0 µM): 88%
residual activity ([16]; compound 10.0 µM): 89%
residual activity ([17]; compound 1.0 µM): 88%
residual activity ([17]; compound 10.0 µM): 106%
residual activity ([18]; compound 1.0 µM): 98%
residual activity ([18]; compound 10.0 µM): 110%
residual activity ([19]; compound 1.0 µM): 96%
residual activity ([19]; compound 10.0 µM): 97%
residual activity ([20]; compound 1.0 µM): 102%
residual activity ([20]; compound 10.0 µM): 96%
residual activity ([33]; compound 1.0 µM): 91%
residual activity ([33]; compound 10.0 µM): 91%
residual activity ([24]; compound 1.0 µM): 110%
residual activity ([24]; compound 10.0 µM): 101%
residual activity ([25]; compound 1.0 µM): 111%
residual activity ([25]; compound 10.0 µM): 110%
residual activity ([26]; compound 1.0 µM): 109%
residual activity ([26]; compound 10.0 µM): 99%
residual activity ([27]; compound 1.0 µM): 94%
residual activity ([27]; compound 10.0 µM): 101%
residual activity ([34]; compound 1.0 µM): 91%
residual activity ([34]; compound 10.0 µM): 92%
residual activity ([28]; compound 1.0 µM): 103%
residual activity ([28]; compound 10.0 µM): 99%

O=C(NOCC(O)CO)c1ccc(F)c(F)c1Nc1ccc(I)cc1Cl (centres undefined)
residual activity ([1]; compound 1.0 µM): 102%
residual activity ([1]; compound 10.0 µM): 97%
residual activity ([2]; compound 1.0 µM): 94%
residual activity ([2]; compound 10.0 µM): 91%
residual activity ([30]; compound 1.0 µM): 93%
residual activity ([30]; compound 10.0 µM): 104%
residual activity ([3]; compound 1.0 µM): 108%
residual activity ([3]; compound 10.0 µM): 103%
residual activity ([31]; compound 1.0 µM): 124%
residual activity ([31]; compound 10.0 µM): 72%
residual activity ([4]; compound 1.0 µM): 90%
residual activity ([4]; compound 10.0 µM): 101%
residual activity ([5]; compound 1.0 µM): 98%
residual activity ([5]; compound 10.0 µM): 42%
residual activity ([6]; compound 1.0 µM): 89%
residual activity ([6]; compound 10.0 µM): 91%
residual activity ([7]; compound 1.0 µM): 97%
residual activity ([7]; compound 10.0 µM): 90%
residual activity ([8]; compound 1.0 µM): 77%
residual activity ([8]; compound 10.0 µM): 71%
residual activity ([9]; compound 1.0 µM): 107%
residual activity ([9]; compound 10.0 µM): 83%
residual activity ([11]; compound 1.0 µM): 98%
residual activity ([11]; compound 10.0 µM): 101%
residual activity ([12]; compound 1.0 µM): 76%
residual activity ([12]; compound 10.0 µM): 98%
residual activity ([13]; compound 1.0 µM): 95%
residual activity ([13]; compound 10.0 µM): 98%
residual activity ([32]; compound 1.0 µM): 93%
residual activity ([32]; compound 10.0 µM): 100%
residual activity ([14]; compound 1.0 µM): 86%
residual activity ([14]; compound 10.0 µM): 84%
residual activity ([16]; compound 1.0 µM): 109%
residual activity ([16]; compound 10.0 µM): 106%
residual activity ([18]; compound 1.0 µM): 89%
residual activity ([18]; compound 10.0 µM): 88%
residual activity ([19]; compound 1.0 µM): 102%
residual activity ([19]; compound 10.0 µM): 103%
residual activity ([20]; compound 1.0 µM): 112%
residual activity ([20]; compound 10.0 µM): 105%
residual activity ([21]; compound 1.0 µM): 79%
residual activity ([21]; compound 10.0 µM): 78%
residual activity ([22]; compound 1.0 µM): 91%
residual activity ([22]; compound 10.0 µM): 92%
residual activity ([23]; compound 1.0 µM): 5%
residual activity ([23]; compound 10.0 µM): 8%
residual activity ([33]; compound 1.0 µM): 96%
residual activity ([33]; compound 10.0 µM): 85%
residual activity ([24]; compound 1.0 µM): 89%
residual activity ([24]; compound 10.0 µM): 89%
residual activity ([25]; compound 1.0 µM): 80%
residual activity ([25]; compound 10.0 µM): 77%
residual activity ([26]; compound 1.0 µM): 77%
residual activity ([26]; compound 10.0 µM): 91%
residual activity ([27]; compound 1.0 µM): 96%
residual activity ([27]; compound 10.0 µM): 97%
residual activity ([34]; compound 1.0 µM): 98%
residual activity ([34]; compound 10.0 µM): 89%
residual activity ([28]; compound 1.0 µM): 119%
residual activity ([28]; compound 10.0 µM): 127%
residual activity ([29]; compound 1.0 µM): 88%
residual activity ([29]; compound 10.0 µM): 93%
